Data on 20 molecules can be found in patent publication US20170233409A1, “TYPE IV SECRETION SYSTEM INHIBITORS” (priority 2016, published 2017).

In assay [1] the test system is H. pylori cag T4SS. The assay is classed as cell-based. The settings on record: no bacterial pre-treatment, about 18 hours post-infection, HEK293-TLR9 cells.
The subject of assay [2] is H. pylori. Briefly: H. pylori viability (cellular ATP, CellTiter-Glo). The class given is cell-based. The settings on record: for H. pylori Toxicity: 150 μM, cellular ATP at 18 h of incubation. (In general: In ATP-based viability assays light output follows the ATP content of the culture.)
Assay [3] deals with cag T4SS. The assay is classed as cell-based, H. pylori. The settings on record: screening library, tested concentrations.
In assay [4] the test system is cag T4SS. The assay is classed as cell-based, H. pylori.
Assay [5] concerns cag T4SS. Briefly: NF-κB luciferase reporter activation by H. pylori in AGS cells. The assay is classed as cell-based. The following applies: WT H. pylori, AGS NF-κB-luc cells. As for the experimental part: Quantitation of NF-κB signaling activation. AGS cells stably transfected with an NF-κB-luciferase reporter (AGS NF-κB-luc) were cultured for 24 h and treated as described for the IL-8 induction studies. After 4 h co-culture with H. pylori, cell monolayers were washed with sterile PBS, and cell monolayer extracts were obtained by passive cell lysis. NF-κB-luciferase activity was measured by the Steady-Glo Luciferase Assay System (Promega) on a BioTek Synergy 4 plate reader, and plates were normalized to the DMSO vehicle control for each dilution series.

For the molecule `O=C(O)C1CSc2c(C3CC3)c(Cc3cccc4ccccc34)cc(=O)n21` (racemic) [rac-C10], the “T4SS Inhibiton [50 μM] (TLR9 Activation Assay)” value (from here on “T4SS Inhibiton [50 μM]”) in assay [1] is reported as “++”.

For the molecule `CCOc1ccc(Cc2cc(=O)n3c(c2C2CC2)SC[C@H]3C(=O)O)c2ccccc12` [(R)-JG131, (R)-8-cyclopropyl-7-((4-ethoxynaphthalen-1-yl)methyl)-5-oxo-2,3-dihydro-5H-thiazolo[3,2-a]pyridine-3-carboxylic acid], in assay [1], the “T4SS Inhibiton [50 μM]” value was “+++ (Very good T4SS inhibition (reproducibly inhibits T4SS activity by at least 50%, with representative results of about 80% inhibition at higher concentrations))”.

`COc1ccc(Cc2cc(=O)n3c(c2C2CC2)SC[C@@H]3C(=O)O)c2ccccc12` [(S)-JG202, (S)-8-cyclopropyl-7-((4-methoxynaphthalen-1-yl)methyl)-5-oxo-2,3-dihydro-5H-thiazolo[3,2-a]pyridine-3-carboxylic acid]: in assay [1], the “T4SS Inhibiton [50 μM]” value is given as “++”.

On to `O=C(O)[C@@H]1CSc2c(-c3cccc(C(F)(F)F)c3)c(Cc3cccc(COc4cccc5ccccc45)c3)cc(=O)n21` [CB151], for which the “H. pylori Toxicity” value in assay [2] is on record as “Toxic”.

For `COc1ccc2cc(Cc3cc(=O)n4c(c3C3CC3)SC[C@H]4C(=O)O)ccc2c1` [CB158, (R)-8-cyclopropyl-7-((6-methoxynaphthalen-2-yl)methyl)-5-oxo-2,3-dihydro-5H-thiazolo[3,2-a]pyridine-3-carboxylic acid], the “T4SS Inhibiton [50 μM]” value in assay [1] is recorded as “+”.

In the case of `O=C(O)[C@@H]1CSc2c(C3CC3)c(Cc3cccc(COc4cccc5ccccc45)c3)cc(=O)n21` [CB160], in assay [2], the “H. pylori Toxicity” value is “Toxic”.

Consider `O=c1cc(Cc2cccc3ccccc23)c(C2CC2)c2n1CCS2` [EC013], for which the “T4SS Inhibiton [50 μM]” value in assay [1] is listed as “+++ (Very good T4SS inhibition (reproducibly inhibits T4SS activity by at least 50%, with representative results of about 80% inhibition at higher concentrations))”.

As for `O=C(O)c1c(Cc2ccccc2)sc2c(C3CC3)c(Cc3cccc4ccccc34)cc(=O)n12` [EC240, reference compound], in assay [3], the “cag T4SS activity, structure-activity statements” value (shortened to “cag T4SS activity”) is listed as “not tolerated”. Also, in assay [2], the “H. pylori Toxicity” value is “Toxic”.

For `Cc1cccc(-c2sc3c(-c4cn(C)c5ccccc45)c(COc4cccc5ccccc45)c(CN4CCOCC4)c(=O)n3c2C(=O)O)c1.Cl` [EC341], the “H. pylori Toxicity” value in assay [2] is given as “Toxic”.

On to `O=C(O)[C@@H]1CSc2c(-c3cccc(C(F)(F)F)c3)c(Cc3cccc4ccccc34)cc(=O)n21` [FN075, reference compound], for which the “cag T4SS activity” value in assay [3] is given as “not tolerated”. Further, the “H. pylori Toxicity” value in assay [2] was “Toxic”.

As a reminder, the EC50 is the concentration giving half of the maximal effect. On to `O=C(O)[C@@H]1CSc2c(C3CC3)c3cn(-c4ccccc4)cc3c(=O)n21` [GKP42, (3R)-9-cyclopropyl-5-oxo-7-phenyl-2,3,5,7-tetrahydropyrrolo[3,4-d][1,3]thiazolo[3,2-a]pyridine-3-carboxylic acid], for which the “cag T4SS activity” value in assay [3] is “inactive”. Further, the “viability of bacterial cells” value in assay [2] (concentrations up to 150 μM) was “did not impact viability”. The “LogEC50, attenuation of cag T4SS-dependent IL-8 secretion” value in assay [4] (4.5 h co-culture, normalized IL-8 secretion, non-linear regression) is listed as −0.648. The “cag T4SS-dependent IL-8 secretion” value in assay [4] (H. pylori-gastric epithelial cell co-culture, 25-150 μM) is “minimal or no effects”. Further, the EC50 in assay [4] (read-out: EC50, attenuation of cag T4SS-dependent IL-8 secretion, 4.5 h co-culture, normalized IL-8 secretion, non-linear regression) is 225 µM. The “cag T4SS-dependent NF-κB activation” value in assay [5] is reported as “did not attenuate”.

Turning to `O=C(O)[C@H]1CSc2c(C3CC3)c(Cc3cccc4ccccc34)cc(=O)n21` [JG14, (S)-8-cyclopropyl-7-(naphthalen-1-ylmethyl)-5-oxo-2,3-dihydro-5H-thiazolo[3,2-a]pyridine-3-carboxylic acid], in assay [1], the “T4SS Inhibiton [50 μM]” value is “++”.

With `O=C(O)[C@@H]1CSc2c(C3CC3)c(Cc3ccc4ccccc4c3)cc(=O)n21` [KSK61, (R)-8-cyclopropyl-7-(naphthalen-2-ylmethyl)-5-oxo-2,3-dihydro-5H-thiazolo[3,2-a]pyridine-3-carboxylic acid], the “T4SS Inhibiton [50 μM]” value in assay [1] is “++”.

`O=C(O)C1CSc2c(C3CC3)c(Cc3ccc(C(F)(F)F)c4ccccc34)cc(=O)n21` (stereo not drawn) [KSK88, 8-cyclopropyl-5-oxo-7-((4-(trifluoromethyl)naphthalen-l1yl)methyl)-2,3-dihydro-5H-thiazolo[3,2-a]pyridine-3-carboxylic acid]: the “T4SS Inhibiton [50 μM]” value in assay [1] is given as “+++ (Very good T4SS inhibition (reproducibly inhibits T4SS activity by at least 50%, with representative results of about 80% inhibition at higher concentrations))”.

Regarding `O=C(Nc1ccccc1)C1CSc2c(C3CC3)c(Cc3cccc4ccccc34)cc(=O)n21` (stereo not drawn) [KSK165], in assay [1], the “T4SS Inhibiton [50 μM]” value is listed as “+++ (Very good T4SS inhibition (reproducibly inhibits T4SS activity by at least 50%, with representative results of about 80% inhibition at higher concentrations))”.

In the case of `O=C(O)[C@@H]1CSc2c(C3CC3)c3c(-c4cccc5ccccc45)n[nH]c3c(=O)n21` [MS218], the “cag T4SS activity” value in assay [3] is “inactive”.

For `O=C([O-])[C@@H]1CSc2c(C3CC3)c(Cc3cccc4ccccc34)c(CN3CCOCC3)c(=O)n21.[Li+]` [NP048], the “cag T4SS activity” value in assay [3] was “abolished activity”.

For `O=C(O)C1CSc2c(C3CC3)c(Cc3ccc(OC4O[C@H](CO)[C@@H](O)[C@@H](O)[C@@H]4O)c4ccccc34)cc(=O)n21` (stereo partly drawn) [PS402, 8-cyclopropyl-5-oxo-7-((4-(((3S,4R,5S,6R)-3,4,5-trihydroxy-6-(hydroxymethyl)tetrahydro-2H-pyran-2-yl)oxy)naphthalen-1-yl)methyl)-2,3-dihydro-5H-thiazolo[3,2-a]pyridine-3-carboxylic acid], the “T4SS Inhibiton [50 μM]” value in assay [1] was “++”.

As to `O=C([O-])[C@@H]1CSc2c(-c3ccccc3)c(Cc3cccc4ccccc34)cc(=O)n21.[Li+]` [PhenylC8], the “cag T4SS activity” value in assay [3] is on record as “not tolerated”.

Take `O=C(O)C1CS(=O)(=O)c2c(C3CC3)c(Cc3cccc4ccccc34)cc(=O)n21` (stereo not drawn) [TW460, 8-cyclopropyl-7-(naphthalen-1-ylmethyl)-5-oxo-2,3-dihydro-5H-thiazolo[3,2-a]pyridine-3-carboxylic acid 1,1-dioxide]: the “T4SS Inhibiton [50 μM]” value in assay [1] is “+”.
